Peptide text beside a SMILES is read from it. * marks the point of attachment. Palmitoyl = CCCCCCCCCCCCCCCC(=O)*
Legend:
[1] = biological target: T1, hUT (Homo sapiens, UniProt Q9UKP6); experiment: β-arrestin 1 conformational change, BRET biosensor, HEK 293-hUT cells; format: cell-based; set-up: expressed in transfected cells; conditions: for Emax: percentage of the activation induced by hUII (10^−6 M), n = 3–5
T1 sequence (Q9UKP6 1-389): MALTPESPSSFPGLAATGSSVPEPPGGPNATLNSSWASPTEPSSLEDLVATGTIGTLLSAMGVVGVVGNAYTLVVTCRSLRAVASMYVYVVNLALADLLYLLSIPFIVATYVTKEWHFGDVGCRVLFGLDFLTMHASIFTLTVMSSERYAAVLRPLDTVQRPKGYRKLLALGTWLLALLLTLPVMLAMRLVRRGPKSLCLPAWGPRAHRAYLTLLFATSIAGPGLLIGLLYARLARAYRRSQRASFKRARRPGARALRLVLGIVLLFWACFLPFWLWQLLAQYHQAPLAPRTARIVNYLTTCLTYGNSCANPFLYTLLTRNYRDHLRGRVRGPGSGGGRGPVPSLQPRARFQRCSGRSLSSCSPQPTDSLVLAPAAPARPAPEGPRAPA
Protocol: (§1) Figure 6 Signaling signature of hUT-pepducins following hUT receptor activation. […] Each curve represents mean ± SEM of at least three independent concentration-response experiments performed in triplicate.
(§2) HEK 293-hUT cells were grown in DMEM culture media supplemented with 10% foetal bovine serum, HEPES, sodium pyruvate, and G418 (200 μg mL^−1). Passages were performed when cells reached 80% of confluency. Cells were initially plated in 96-well plates at a density of 10,000 cells/well. The following day, the medium is replaced with DMEM culture media supplemented with 2.5% foetal bovine serum (FBS), and 12 h later, cells were transiently transfected with 25 ng/well of a Gq-polycistronic, 25 ng/well of a G12-polycistronic BRET sensor, 25 ng/well of a G13-polycistronic BRET sensor, 2.5 ng/well pIRESB RLucII-ERK-NLS-GFP BRET sensor, 2.5 ng β-arrestin 1-polycistronic BRET sensor, or 2.5 ng β-arrestin 2-polycistronic BRET sensor using Lipofectamine2000 at a ratio of 3:1 (Lipofectamine/plasmid DNA) in serum-free Opti-MEM ([44], [81]). Sixteen hours posttransfection, medium was replaced with DMEM supplemented with 10% FBS, HEPES, sodium pyruvate and G418 (200 μg mL^−1) and cell growth was resumed for another 16 h. Cells were washed with 150 μl PBS solution supplemented with 0.1% of glucose and then incubated with 80 μl of this solution for 2 h. Then, to evaluate Gq and G12 activation, 10 μl of a 1/20 dilution (diluted before use) of coelenterazine 400A (stock at 1 mM in ethanol) in Kreb's buffer and 10 μl of the 10× appropriate concentration of peptide were added, and the luminescence was evaluated with an Infinite M1000 PRO. […] Readings were performed after 5 min using an Infinite M1000 PRO. Filters were set at 410 nm and 515 nm for detecting the Renilla luciferase II (RlucII, donor) and green fluorescent protein 10 (GFP10, acceptor) light emission, respectively. BRET ratio was determined by calculating the ratio of the light emitted by GFP10 over the light emitted by the RlucII.

[2] = biological target: T1, hUT; experiment: G13 activation, BRET biosensor, HEK 293-hUT cells; format: cell-based; set-up: expressed in transfected cells; conditions: for EC50: HEK 293-hUT, BRET, mean ± SEM, n = 3–5, read-out: G13 activation pEC50 (converted)
Protocol: as §1, §2

[3] = biological target: T1, hUT; experiment: Gq activation, BRET biosensor, HEK 293-hUT cells; format: cell-based; set-up: expressed in transfected cells; conditions: mean ± SEM; for EC50: n = 3–5, read-out: Gq activation pEC50 (converted)
Protocol: as §1, §2

[4] = biological target: T2, rat thoracic aorta rings (Rattus norvegicus, UniProt P49684); experiment: Modulation of hUII-mediated rat aortic ring contraction; conditions: for Emax: read-out: hUII Emax after pepducin pretreatment
T2 sequence (P49684 1-386): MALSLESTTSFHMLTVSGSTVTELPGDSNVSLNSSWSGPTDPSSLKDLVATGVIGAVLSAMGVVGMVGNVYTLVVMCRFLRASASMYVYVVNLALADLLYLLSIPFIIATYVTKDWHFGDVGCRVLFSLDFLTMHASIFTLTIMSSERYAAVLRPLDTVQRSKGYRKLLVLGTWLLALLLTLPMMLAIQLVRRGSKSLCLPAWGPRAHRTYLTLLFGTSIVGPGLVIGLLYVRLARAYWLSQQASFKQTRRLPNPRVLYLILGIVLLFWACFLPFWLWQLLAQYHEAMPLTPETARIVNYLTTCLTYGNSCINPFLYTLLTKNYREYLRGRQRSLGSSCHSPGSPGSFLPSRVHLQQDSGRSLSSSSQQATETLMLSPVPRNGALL
Protocol: Each replicate (n) was conducted on tissue obtained from at least three different animals. Data represent mean ± SEM.
Adult male Sprague-Dawley rats (Charles-River) weighing 250–300 g were housed in cages under controlled illumination (12:12 h light–dark cycle), humidity, and temperature (21–23 °C) and had free access to tap water and rat chow. All experimental procedures were performed in accordance with regulations and ethical guidelines from the Canadian Council for the Care of Laboratory Animals and received approvals of the institutional animal care and use committee of the Institut National de la Recherche Scientifique—Centre Armand-Frappier Santé Biotechnologie. As previously described ([17], [18]), the thoracic aorta was cleared of surrounding tissue and then excised from the aortic arch to the diaphragm. Conjunctive tissues were next removed from the thoracic aorta and the vessels were divided into five rings of 4 mm. The endothelium of each aortic ring was removed by gently rubbing the vessel intimal surface. Aortic rings were then placed in a 5 ml organ bath filled with oxygenated normal Krebs–Henseleit buffer. Eighty microliters of a 2.5 M potassium chloride solution (40 mM final concentration) was used to evaluate maximal contractile responses of each vessel. […] Cumulative concentration–response curves to synthetic peptides were obtained by increasing the concentration of each peptide in the remaining organ chambers (10^−11–10^−5 M).

[5] = biological target: T1, hUT; experiment: IP1 production, IP-One terbium immunoassay, CHO-hUT cells; format: cell-based; set-up: expressed in transfected cells; host or cells: CHO-K1 cells stably expressing hUT (gift from H. Vaudry and C. Dubessy, University of Rouen); conditions: for IP1 production efficacy at 10^−5 M: 40 min, normalized to the hUII maximum effect; for EC50: 40 min incubation at 37 °C, mean ± SEM of at least three independent experiments in triplicate, read-out: IP1 production pEC50 (converted)
Protocol: Figure 3 IP1production (A and B) and ERK1/2phosphorylation (C and D) kinetics and concentration dependence following hUT activation. IP1 production was evaluated using the IP-One terbium immunoassay kits while ERK1/2 phosphorylation was measured by western blot in CHO-K1 cells stably expressing hUT. […] Each curve represents the mean ± SEM of at least three independent experiments performed in triplicate.
This assay, performed with the IP-One terbium immunoassay kits from Cisbio, was used according to the manufacturer recommendation and as previously described ([43]). Briefly, CHO-hUT cells were grown in 10-cm dishes for 24 h. The cells were then starved without serum. The next day, cells were washed once with PBS and collected in PBS containing 20 mM EDTA. For the assay, 80,000 cells per well (96-well plate) were used. […] IP1-d2 and anti-IP1-cryptate were added for an additional 2 h at room temperature. Plates were read on a Flexstation 3 microplate reader.

[6] = percentage of the activation induced by hUII (10^−6 M), n = 3–5

| SMILES | EC50 ([1]; 15 min at RT, mean ± SEM, n = 3–5, read-out: β-arrestin 1 pEC50 (converted)) | Emax ([1]; 15 min at RT, mean ± SEM) | Emax [2] | EC50 [2] | EC50 [3] | Emax [3, 6] | Emax [4] | IP1 production efficacy at 10^−5 M ([5]; CHO-hUT) | EC50 ([5]; CHO-hUT) | Emax at 1 µM [2] | Emax at 1 µM [3, 6] | hUII-mediated contraction pEC50, control (no pretreatment) ([4]; rat aortic rings, hUII alone, mean ± SEM, n = 19) | Emax [5] | time to plateau of IP1 production ([5]; CHO-hUT, time course) | β-arrestin 1 activation (in words) [1] | shift of hUII / URP concentration–response curve ([4]; rat aortic rings, pepducin 10^−6 M pretreatment) |
| --- | --- | --- | --- | --- | --- | --- | --- | --- | --- | --- | --- | --- | --- | --- | --- | --- |
| CCCCCCCCCCCCCCCC(=O)N[C@@H](Cc1c[nH]c2ccccc12)C(=O)N[C@@H](CC(C)C)C(=O)N[C@@H](CO)C(=O)N[C@@H](CCC(N)=O)C(=O)N[C@@H](CCCNC(=N)N)C(=O)N[C@@H](C)C(=O)N[C@@H](CO)C(=O)N[C@@H](Cc1ccccc1)C(=O)N[C@@H](CCCCN)C(=O)N[C@@H](CCCNC(=N)N)C(=O)N[C@@H](C)C(=O)N[C@@H](CCCNC(=N)N)C(=O)N[C@@H](CCCNC(=N)N)C(N)=O [[Trp^1, Leu^2]hUT-Pep3] (Palmitoyl-WLSQRASFKRARR-NH2) | 8.32 nM | ~18% | 185 ± 11% | 309 nM | 4.57 nM | 29 ± 4% | 35 ± 6% | ~60% | > 1000 nM |  |  |  |  |  |  |  |
| CC(C)[C@H](NC(=O)[C@@H]1CSSC[C@H](NC(=O)[C@H](CC(=O)O)NC(=O)[C@@H]2CCCN2C(=O)[C@@H](NC(=O)[C@@H](N)CCC(=O)O)[C@@H](C)O)C(=O)N[C@@H](Cc2ccccc2)C(=O)N[C@@H](Cc2c[nH]c3ccccc23)C(=O)N[C@@H](CCCCN)C(=O)N[C@@H](Cc2ccc(O)cc2)C(=O)N1)C(=O)O [hUII, urotensin II, reference compound] |  | 104 ± 4% |  |  |  |  |  |  |  | 106 ± 5% | 109 ± 5% | 8.69 ± 0.08 | 97 ± 1% | 40 min |  |  |
| CCCCCCCCCCCCCCCC(=O)N[C@@H](CCCNC(=N)N)C(=O)N1CCC[C@H]1C(=O)N[C@@H](CC(C)C)C(=O)N[C@@H](CC(=O)O)C(=O)N[C@H](C(=O)N[C@H](C(=O)N[C@@H](CCC(N)=O)C(=O)N[C@@H](CCCNC(=N)N)C(=O)N1CCC[C@H]1C(=O)N[C@@H](CCCCN)C(=O)NCC(=O)N[C@@H](Cc1ccc(O)cc1)C(N)=O)C(C)C)[C@@H](C)O [hUT-Pep2] (Palmitoyl-RPLDTVQRPKGY-NH2) |  |  | 154 ± 10% | 468 nM | 49 nM | ~9% | 86 ± 3% | around 35% | > 1000 nM |  |  |  |  |  | inactive | significant rightward shift in the concentration–response curve of hUII but not URP |

— PMC8424217 (The Journal of Biological Chemistry, 2021)
